Measured values published in ChEMBL document CHEMBL2203277, “Synthesis and antibacterial activity of novel modified 5-O-desosamine ketolides” (2012).
≈ marks a conversion by molar mass, not a printed value.

Assays:
Type in all cases: functional
Streptococcus pyogenes [1] = test: Antibacterial activity against erythromycin-sensitive Streptococcus pyogenes 09U070 by broth microdilution method
Streptococcus pneumoniae [2] = test: Antibacterial activity against erythromycin-sensitive Streptococcus pneumoniae 09H071 by broth microdilution method
[3] = test system: Staphylococcus epidermidis; test: Antibacterial activity against methicillin-resistant Staphylococcus epidermidis 09R476 by broth microdilution method
[4] = test system: Staphylococcus epidermidis; test: Antibacterial activity against methicillin-sensitive Staphylococcus epidermidis 09G291 by broth microdilution method
[5] = test system: Staphylococcus epidermidis; test: Antibacterial activity against methicillin-resistant Staphylococcus epidermidis 09M124 by broth microdilution method
Staphylococcus aureus [6] = test: Antibacterial activity against methicillin-resistant Staphylococcus aureus 09L075 by broth microdilution method
Staphylococcus aureus [7] = test: Antibacterial activity against methicillin-sensitive Staphylococcus aureus 09O077 by broth microdilution method
Streptococcus pneumoniae [8] = test: Antibacterial activity against erythromycin-resistant Streptococcus pneumoniae 09E427 by broth microdilution method
Streptococcus pyogenes [9] = test: Antibacterial activity against erythromycin-resistant Streptococcus pyogenes 09Q149 by broth microdilution method
Streptococcus pneumoniae [10] = test: Antibacterial activity against erythromycin-sensitive Streptococcus pneumoniae 09H065 by broth microdilution method
Staphylococcus aureus [11] = test: Antibacterial activity against methicillin-sensitive Staphylococcus aureus ATCC 29213 by broth microdilution method
Streptococcus pneumoniae [12] = test: Antibacterial activity against erythromycin-resistant Streptococcus pneumoniae 09D016 by broth microdilution method
Staphylococcus aureus [13] = test: Antibacterial activity against methicillin-resistant Staphylococcus aureus 09N120 by broth microdilution method
Streptococcus pneumoniae [14] = test: Antibacterial activity against erythromycin-sensitive Streptococcus pneumoniae ATCC 49619 by broth microdilution method
Staphylococcus aureus [15] = test: Antibacterial activity against methicillin-sensitive Staphylococcus aureus 09U035 by broth microdilution method
[16] = test system: Staphylococcus epidermidis; test: Antibacterial activity against methicillin-sensitive Staphylococcus epidermidis 09A011 by broth microdilution method

Row | SMILES | MIC (Streptococcus pyogenes [1]) | MIC (Streptococcus pneumoniae [2]) | MIC [3] | MIC [4] | MIC [5] | MIC (Staphylococcus aureus [6]) | MIC (Staphylococcus aureus [7]) | MIC (Streptococcus pneumoniae [8]) | MIC (Streptococcus pyogenes [9]) | MIC (Streptococcus pneumoniae [10]) | MIC (Staphylococcus aureus [11]) | MIC (Streptococcus pneumoniae [12]) | MIC (Staphylococcus aureus [13]) | MIC (Streptococcus pneumoniae [14]) | MIC (Staphylococcus aureus [15]) | MIC [16]
1 | CC[C@H]1OC(=O)[C@H](C)C(=O)[C@H](C)[C@@H](O[C@@H]2O[C@H](C)[C@@H](OCc3ccccc3)[C@H](N(C)C)[C@H]2O)[C@](C)(OC)C[C@@H](C)C(=O)[C@H](C)[C@@H]2OC(=O)O[C@]12C | > 32 µg/mL | 4 µg/mL (≈ 5.56 µM) | 32 µg/mL (≈ 44.5 µM) | > 32 µg/mL | 32 µg/mL (≈ 44.5 µM) | > 32 µg/mL | > 32 µg/mL | > 32 µg/mL | > 32 µg/mL | 4 µg/mL (≈ 5.56 µM) | 32 µg/mL (≈ 44.5 µM) | > 32 µg/mL | > 32 µg/mL | 4 µg/mL (≈ 5.56 µM) | > 32 µg/mL | 16 µg/mL (≈ 22.2 µM)
2 | CC[C@H]1OC(=O)[C@H](C)C(=O)[C@H](C)[C@@H](O[C@@H]2O[C@H](C)[C@@H](O)[C@H](N(C)C)[C@H]2O)[C@](C)(OC)C[C@@H](C)C(=O)[C@H](C)[C@@H]2OC(=O)O[C@]12C | ≤ 0.031 µg/mL | ≤ 0.031 µg/mL | 0.25 µg/mL (≈ 0.397 µM) | > 32 µg/mL | 0.25 µg/mL (≈ 0.397 µM) | 0.125 µg/mL (≈ 0.198 µM) | > 32 µg/mL | > 32 µg/mL | > 32 µg/mL | 0.062 µg/mL (≈ 0.0985 µM) | 0.125 µg/mL (≈ 0.198 µM) | > 32 µg/mL | > 32 µg/mL | 0.062 µg/mL (≈ 0.0985 µM) | > 32 µg/mL | 0.125 µg/mL (≈ 0.198 µM)
3 | C=CCO[C@H]1[C@H](N(C)C)[C@@H](O)[C@H](O[C@@H]2[C@@H](C)C(=O)[C@@H](C)C(=O)O[C@H](CC)[C@@]3(C)OC(=O)O[C@H]3[C@@H](C)C(=O)[C@H](C)C[C@@]2(C)OC)O[C@@H]1C | > 8 µg/mL | 1 µg/mL (≈ 1.49 µM) | 4 µg/mL (≈ 5.97 µM) | > 8 µg/mL | 4 µg/mL (≈ 5.97 µM) | 8 µg/mL (≈ 11.9 µM) | > 8 µg/mL | > 8 µg/mL | > 8 µg/mL | 0.5 µg/mL (≈ 0.746 µM) | 4 µg/mL (≈ 5.97 µM) | > 8 µg/mL | > 8 µg/mL | 0.5 µg/mL (≈ 0.746 µM) | > 8 µg/mL | 2 µg/mL (≈ 2.99 µM)
4 | CC[C@H]1OC(=O)[C@H](C)[C@@H](O[C@H]2C[C@@](C)(OC)[C@@H](O)[C@H](C)O2)[C@H](C)[C@@H](O[C@@H]2O[C@H](C)C[C@H](N(C)C)[C@H]2O)[C@](C)(OC)C[C@@H](C)C(=O)[C@H](C)[C@@H](O)[C@]1(C)O [CLARITHROMYCIN] | 0.031 µg/mL (≈ 0.0414 µM) | 0.062 µg/mL (≈ 0.0829 µM) | 0.25 µg/mL (≈ 0.334 µM) | > 32 µg/mL | 32 µg/mL (≈ 42.8 µM) | 2 µg/mL (≈ 2.67 µM) | > 32 µg/mL | > 32 µg/mL | > 32 µg/mL | 0.062 µg/mL (≈ 0.0829 µM) | 0.25 µg/mL (≈ 0.334 µM) | > 32 µg/mL | > 32 µg/mL | 0.125 µg/mL (≈ 0.167 µM) | > 32 µg/mL | 0.125 µg/mL (≈ 0.167 µM)
5 | CC[C@H]1OC(=O)[C@H](C)[C@@H](O[C@H]2C[C@@](C)(OC)[C@@H](O)[C@H](C)O2)[C@H](C)[C@@H](O[C@@H]2O[C@H](C)C[C@H](N(C)C)[C@H]2O)[C@](C)(O)C[C@@H](C)C(=O)[C@H](C)[C@@H](O)[C@]1(C)O [ERYTHROMYCIN] | 0.031 µg/mL (≈ 0.0422 µM) | 0.062 µg/mL (≈ 0.0845 µM) | 0.125 µg/mL (≈ 0.17 µM) | > 256 µg/mL | 128 µg/mL (≈ 174 µM) | 0.5 µg/mL (≈ 0.681 µM) | > 256 µg/mL | > 256 µg/mL | > 256 µg/mL | 0.062 µg/mL (≈ 0.0845 µM) | 0.25 µg/mL (≈ 0.341 µM) | > 256 µg/mL | > 256 µg/mL | 0.062 µg/mL (≈ 0.0845 µM) | > 256 µg/mL | 0.062 µg/mL (≈ 0.0845 µM)
6 | CC[C@H]1OC(=O)[C@H](C)C(=O)[C@H](C)[C@@H](O[C@@H]2O[C@H](C)C[C@H](N(C)C)[C@H]2O)[C@](C)(OC)C[C@@H](C)C(=O)[C@H](C)[C@H]2N(CCCCn3cnc(-c4cccnc4)c3)C(=O)O[C@]12C [TELITHROMYCIN] | 0.016 µg/mL (≈ 0.0197 µM) | 0.031 µg/mL (≈ 0.0382 µM) | 0.125 µg/mL (≈ 0.154 µM) | > 64 µg/mL | 0.25 µg/mL (≈ 0.308 µM) | 0.125 µg/mL (≈ 0.154 µM) | > 64 µg/mL | 0.25 µg/mL (≈ 0.308 µM) | 2 µg/mL (≈ 2.46 µM) | 0.031 µg/mL (≈ 0.0382 µM) | 0.125 µg/mL (≈ 0.154 µM) | 0.125 µg/mL (≈ 0.154 µM) | > 64 µg/mL | 0.031 µg/mL (≈ 0.0382 µM) | > 64 µg/mL | 0.125 µg/mL (≈ 0.154 µM)
